{
  "source": "paper PMC11320734",
  "about": "(ACS Pharmacology & Translational Science, 2024)",
  "key": {"[1]": {"test_system": "UUO-induced kidney fibrosis", "test": "Unilateral ureteral obstruction (UUO) model of kidney fibrosis", "format": "in vivo, Sprague–Dawley rats", "conditions": "32 mg kg^–1, day 5, time-course experiment", "description": "(§1) In the ischemia/reperfusion (I/R) model of acute kidney injury (AKI),[47],[48] the compounds were administered orally by gavage to C57BL/6 mice 30 min before ischemia obtained by clamping both renal arteries and veins for 25 min, followed by 24 h of reperfusion. Mice were anesthetized using xylazine (10 mg kg^–1)/ketamine (100 mg kg^–1) injected intraperitoneally. Sham treated mice were treated identically except for the temporary closure of the renal vessels. After 24 h, under reanesthesia, plasma was taken for biomarker analysis. Thereafter, mice still in deep anesthesia were sacrificed by cervical dislocation. Creatinine, BUN (blood urea nitrogen), NGAL (neutrophil gelatinase-associated lipocalin), osteopontin, and KIM1 (kidney injury molecule-1) levels were determined using the following commercially available standard assays: creatinine: Roche Diagnostics 03263991, BUN: Roche Diagnostics 04460715, NGAL: BioPorto, Kit046 + Kit042, osteopontin: R&D Systems, MOST00, KIM-1: Abnova, KA1064. To assess fibrotic effects, we used the unilateral ureteral obstruction (UOO) model in Sprague–Dawley rats.[49] For the UOO model, rats were sacrificed after 5, 8, and 11 days and the percentage of PicroSirius Red positive areas (indicator of collagen III–I deposition) were measured in 4 μm histological cross sections of the kidney after 2% paraformaldehyde perfusion fixation and paraffin embedding. The extend of kidney fibrosis was quantified based on PicroSirius Red staining of 10 renal sections about 1 mm apart from each kidney. The collagen–III-I-positive pixel counts were determined in the cortical aspect of each kidney section from 10 optical fields using a 40× objective. As the total area analyzed was identical for all kidneys under investigation, the absolute number of pixels was used as the relevant readout. Vehicle treated animals received saline gavage only. The details of PicroSirius Red staining were previously described.[22]"}, "Microsomal clearance [2]": {"test": "Microsomal clearance", "format": "in vitro ADME", "conditions": "human, human microsomes; Table 1"}, "hCB1R [3]": {"target": "T1, hCB1R (Homo sapiens, UniProt P21554)", "T1 sequence (P21554 whole entry)": "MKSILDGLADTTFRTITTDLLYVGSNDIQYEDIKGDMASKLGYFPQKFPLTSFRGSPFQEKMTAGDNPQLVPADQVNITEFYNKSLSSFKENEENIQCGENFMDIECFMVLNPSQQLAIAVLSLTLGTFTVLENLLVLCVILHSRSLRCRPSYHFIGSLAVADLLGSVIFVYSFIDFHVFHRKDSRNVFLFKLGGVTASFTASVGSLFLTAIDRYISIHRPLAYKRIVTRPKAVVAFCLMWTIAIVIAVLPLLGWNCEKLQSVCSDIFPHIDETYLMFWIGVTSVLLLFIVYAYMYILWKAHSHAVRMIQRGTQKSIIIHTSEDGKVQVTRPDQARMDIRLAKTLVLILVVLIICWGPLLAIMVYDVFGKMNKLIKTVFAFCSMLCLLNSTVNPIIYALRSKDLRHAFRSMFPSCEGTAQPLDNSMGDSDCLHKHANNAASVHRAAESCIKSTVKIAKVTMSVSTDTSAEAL", "test": "cell-based", "conditions": "Table 1; mean ± SD; read-out: EC50 hCB1R (cAMP assay)"}, "[4]": {"test": "Parallel artificial membrane permeability (PAMPA) assay", "format": "in vitro ADME", "conditions": "PAMPA, Table 1; read-out: PAMPA Peff", "description": "The general permeability of the compound was assessed using the parallel artificial membrane permeability (PAMPA) assay and the permeability-glycoprotein (P-gp) assay was used to specifically test for brain penetration. PAMPA data were generated as previously reported by our group.[44] The P-gp assay, which evaluates the brain penetration of test compounds, was performed as described elsewhere.[45] Briefly, transfected porcine kidney epithelial (LLC-PK1) cells expressing human or mouse P-gp were cultured on 96-well semipermeable filter membrane plates (Millipore, Darmstadt, Germany). Cells formed a polarized monolayer with tight junctions that acted as a barrier between apical and basolateral compartments. P-gp was expressed in the apical-facing membrane of the monolayer (tightness confirmed using Lucifer yellow). To determine the unidirectional permeability (Papp) of RNB-61, samples were added separately to the apical (for A > B Papp) and basolateral (for B > A Papp) sides of the cell monolayer (i.e., donor compartments), and RNB-61 movement into the respective receiver compartments was measured by LC-MS/MS over a 3 h incubation at 37 °C. The effect of P-gp was measured by expressing the efflux ratio of the unidirectional A > B and B > A Papp values. The mean permeability (A > B and B > A Papp) was determined in the absence of P-gp via the addition of the selective P-gp inhibitor, tariquidar."}, "human wild type CB2R": {"target": "human wild type CB2R (Homo sapiens, UniProt P34972)", "sequence (P34972 whole entry)": "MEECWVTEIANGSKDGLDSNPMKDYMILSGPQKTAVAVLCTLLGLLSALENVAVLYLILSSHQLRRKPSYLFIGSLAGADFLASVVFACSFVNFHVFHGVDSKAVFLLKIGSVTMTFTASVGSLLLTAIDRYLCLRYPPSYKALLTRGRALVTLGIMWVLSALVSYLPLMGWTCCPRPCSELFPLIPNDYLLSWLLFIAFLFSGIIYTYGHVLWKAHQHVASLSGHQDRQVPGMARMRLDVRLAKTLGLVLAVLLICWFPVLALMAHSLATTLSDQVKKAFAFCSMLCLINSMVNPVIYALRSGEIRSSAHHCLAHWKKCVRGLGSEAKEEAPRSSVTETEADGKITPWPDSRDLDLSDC", "test": "cAMP assay in CHO cells", "format": "cell-based", "parameters": "expressed in transfected cells; host or cells: CHO cells"}, "Solubility (Table 1)": {"test": "Solubility (Table 1)", "format": "physicochemical", "conditions": "thermodynamic from solid", "description": "(§2) For the determination of the octanol/water distribution coefficient (logD), the carrier-mediated distribution system (CAMDIS)-assay was used as described elsewhere.[38] Kinetic and thermodynamic solubilities were assessed using the lyophilization solubility assay (LYSA) and thermodynamic solubility assay (THESA), respectively. For the LYSA, the solubility of RNB- 61 in phosphate buffer at pH 6.5 from an evaporated 10 mM DMSO compound stock solution was measured. Two aliquots of the test compounds were dried and dissolved in phosphate buffer at pH 6.5. The solutions were then filtered and diluted (3 different dilution levels for each compound) before high throughput mass spectrometry (MS) analysis was performed in an Agilent RapidFire system. Each test compound was quantified using a 6-point calibration curve prepared with the same DMSO starting solution. For THESA, RNB-61 (8.6 mg per mL solvent/vehicle) was stirred in HPLC vials (9 × 12 × 32 mm, Waters) at 350 rpm for 15 h. The presence of solid particles was determined by microscopic analysis of 10 μL samples. If the active pharmacological ingredient (API) was completely dissolved, more solid API was added before stirring for another 15 h. This step was repeated for up to 96 h or until residual solid particles could be detected. Samples (0.5 mL) were transferred to Eppendorf Ultrafree filter tubes (Filter: PVDF 0.22 μm) and centrifuged at 14,500 rpm for 10 min. The filtrates were diluted in ethanol and analyzed by ultra-performance liquid chromatography (UPLC). Measurements were repeated in 0.05 M aqueous phosphate buffer and in fasted (FaSSIF) and fed (FeSSIF) simulated gastrointestinal fluids."}, "Microsomal clearance [5]": {"test": "Microsomal clearance", "format": "in vitro ADME", "conditions": "rat, rat microsomes, Table 1"}, "human CB2R": {"target": "human CB2R (Homo sapiens, UniProt P34972)", "sequence (P34972 whole entry)": "as above", "test": "Competition binding assay with [3H]-CP55940, HEK cell membranes", "conditions": "for hCB2R selectivity: Ki hCB1R over Ki hCB2R", "procedure": "(§3) Competition and saturation binding assays were performed using the radiolabeled CB1R/CB2R agonist [^3H]-CP55940 (PerkinElmer).\n(§4) Binding reactions were terminated by vacuum filtration onto 0.5% polyethylenimine presoaked GF/B filter plates (Packard) using a Filtermate cell harvester followed by 6 brief washes with 0.3 mL/well of ice-cold wash buffer. Wash buffer comprising 50 mmol L^–1 Tris- HCl, 5 mmol L^–1 MgCl2, 2.5 mmol L^–1 EDTA, and 0.5% fatty acid-free BSA, pH 7.4. Plates were dried at 50 °C for 1 h and liquid scintillation counting was used to determine levels of bound radiolabel. IC50 values and Hill slopes were determined with a 4-parameter logistic model using ActivityBase (ID Business Solution, Guilford, UK) and pKi values were determined using the Cheng–Prusoff equation as shown below: [drawing 1] where S indicates the concentration of the substrate and Km depicts the affinity constant of the substrate."}, "[6]": {"test": "Octanol/water distribution coefficient (logD), CAMDIS assay", "format": "physicochemical", "conditions": "octanol/water; read-out: logD", "description": "as §2"}, "[7]": {"target": "T2, CB2R in wild-type rat spleen membranes (Rattus norvegicus, UniProt Q9QZN9)", "T2 construct": "from tissue; host or cells: rat spleen membranes", "T2 sequence (Q9QZN9 whole entry)": "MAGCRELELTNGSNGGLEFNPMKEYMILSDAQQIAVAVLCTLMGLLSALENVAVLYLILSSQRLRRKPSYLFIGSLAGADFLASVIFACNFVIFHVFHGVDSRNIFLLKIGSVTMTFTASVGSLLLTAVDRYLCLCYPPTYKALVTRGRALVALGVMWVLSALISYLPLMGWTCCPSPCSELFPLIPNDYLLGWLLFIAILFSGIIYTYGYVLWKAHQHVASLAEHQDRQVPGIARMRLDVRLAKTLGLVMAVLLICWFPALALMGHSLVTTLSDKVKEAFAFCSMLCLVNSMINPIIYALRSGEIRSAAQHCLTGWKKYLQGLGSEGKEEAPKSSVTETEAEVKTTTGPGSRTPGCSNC", "format": "binding", "conditions": "WT rat spleen membranes"}, "hCB1R [8]": {"target": "T1, hCB1R", "test": "Competition binding assay with [3H]-CP55940, HEK cell membranes", "procedure": "as §3, §4"}, "[9]": {"test_system": "renal I/R-induced acute kidney injury", "test": "Ischemia/reperfusion (I/R) model of acute kidney injury", "format": "in vivo, C57BL/6 mice", "description": "as §1"}, "[10]": {"conditions": "Table 1, mean ± SD, read-out: EC50 hCB2R (cAMP assay)"}},
  "note": "Where two headings read alike, the source gives them in different places.",
  "data": [
    {"compound": "CCOC(=O)[C@H](CCc1ccccc1)N[C@@H](C)C(=O)N1CCC[C@H]1C(=O)O", "note": "[enalapril, reference compound]", "values": [
      {"measurement": "collagen–III-I positive area vs vehicle", "setting": "[1]", "value": "No significant difference"}
    ]},
    {"compound": "CC(C)(Oc1ccc(C(F)(F)F)cn1)C(=O)Cc1cc(C(C)(C)C)no1", "note": "[RNB-90]", "values": [
      {"measurement": "microsomal CLint", "setting": "Microsomal clearance [2]", "value": 15, "unit": "µL/min/mg"},
      {"measurement": "EC50", "setting": "hCB1R [3]", "value": "19.6 ± 1.18", "unit": "nM"},
      {"measurement": "Papp", "setting": "[4]", "value": 2, "unit": "×10⁻⁶ cm/s"},
      {"measurement": "EC50", "setting": "human wild type CB2R; [10]", "value": "0.26 ± 0.05", "unit": "nM"},
      {"measurement": "solubility", "setting": "Solubility (Table 1)", "value": "< 1", "unit": "µg/mL"},
      {"measurement": "microsomal CLint", "setting": "Microsomal clearance [5]", "value": 81, "unit": "µL/min/mg"},
      {"measurement": "hCB2R selectivity", "setting": "human CB2R", "value": 307},
      {"measurement": "logD", "setting": "[6]", "value": 4.07}
    ]},
    {"compound": "Cc1c(C(=O)c2cccc3ccccc23)c2cccc3c2n1[C@H](CN1CCOCC1)CO3", "note": "[WIN55,212–2]", "values": [
      {"measurement": "reduction of [3H]-RNB-61 radioactivity", "setting": "[7]; competitor 10 μM", "value": "significant reduction"}
    ]},
    {"compound": "COCCOCCc1cc(NC(=O)C(C)(C)S(=O)(=O)C2CCOCC2)on1", "note": "[RNB-70]", "values": [
      {"measurement": "microsomal CLint", "setting": "Microsomal clearance [2]", "value": "< 10", "unit": "µL/min/mg"},
      {"measurement": "EC50", "setting": "hCB1R [3]", "value": "> 10000", "unit": "nM"},
      {"measurement": "Papp", "setting": "[4]", "value": 5.9, "unit": "×10⁻⁶ cm/s"},
      {"measurement": "Ki", "setting": "hCB1R [8]", "value": "> 10000", "unit": "nM"},
      {"measurement": "EC50", "setting": "human wild type CB2R; [10]", "value": "13 ± 2.58", "unit": "nM"},
      {"measurement": "solubility", "setting": "Solubility (Table 1)", "value": "> 510", "unit": "µg/mL"},
      {"measurement": "hCB2R selectivity", "setting": "human CB2R", "value": ">559"},
      {"measurement": "logD", "setting": "[6]", "value": 0.8}
    ]},
    {"compound": "CC1(C)CC(O)CC(C)(C)N1[O]", "note": "[tempol, reference compound]", "values": [
      {"measurement": "reduction of BUN compared to vehicle", "setting": "[9]; 50 mg kg^–1", "value": 26, "unit": "%"},
      {"measurement": "reduction of plasma KIM-1 compared to vehicle", "setting": "[9]; 50 mg kg^–1", "value": 57, "unit": "%"},
      {"measurement": "reduction of plasma NGAL compared to vehicle", "setting": "[9]; 50 mg kg^–1", "value": 43, "unit": "%"},
      {"measurement": "reduction of plasma creatinine compared to vehicle", "setting": "[9]; 50 mg kg^–1", "value": 35, "unit": "%"},
      {"measurement": "reduction of plasma osteopontin compared to vehicle", "setting": "[9]; 50 mg kg^–1", "value": 49, "unit": "%"}
    ]},
    {"compound": "CN(C(=O)c1cc(C(F)(F)F)ccc1OCC(C)(C)O)c1cc(C(C)(C)C)nn1CC1CCC1", "note": "[regioisomer of RNB-61]", "values": [
      {"measurement": "activity (data not shown)", "setting": "human CB2R; assay not specified", "value": "inactive"}
    ]},
    {"compound": "Oc1ccc(C2CNCCc3c2cc(O)c(O)c3Cl)cc1", "note": "(centres unmarked) [fenoldopam, reference compound]", "values": [
      {"measurement": "reduction of BUN compared to vehicle", "setting": "[9]; 20 mg kg^–1", "value": 39, "unit": "%"},
      {"measurement": "reduction of plasma creatinine compared to vehicle", "setting": "[9]; 20 mg kg^–1", "value": 55, "unit": "%"}
    ]},
    {"compound": "CC1(C)C(C(=O)c2cn(CCN3CCOCC3)c3ccccc23)C1(C)C", "note": "[RNB-92]", "values": [
      {"measurement": "microsomal CLint", "setting": "Microsomal clearance [2]", "value": 420, "unit": "µL/min/mg"},
      {"measurement": "EC50", "setting": "human wild type CB2R", "value": "0.17 ± 0.01", "unit": "nM"},
      {"measurement": "solubility", "setting": "Solubility (Table 1)", "value": 2, "unit": "µg/mL"},
      {"measurement": "microsomal CLint", "setting": "Microsomal clearance [5]", "value": 730, "unit": "µL/min/mg"},
      {"measurement": "logD", "setting": "[6]", "value": 3.43}
    ]},
    {"compound": "N#Cc1cc(NC(=O)CCc2nc(-c3ccc(F)cc3Cl)no2)cnc1CC(F)(F)F", "note": "[RNB-73]", "values": [
      {"measurement": "microsomal CLint", "setting": "Microsomal clearance [2]", "value": "< 10", "unit": "µL/min/mg"},
      {"measurement": "EC50", "setting": "hCB1R [3]", "value": "> 10000", "unit": "nM"},
      {"measurement": "Papp", "setting": "[4]", "value": 7.4, "unit": "×10⁻⁶ cm/s"},
      {"measurement": "Ki", "setting": "hCB1R [8]", "value": "> 10000", "unit": "nM"},
      {"measurement": "EC50", "setting": "human wild type CB2R; [10]", "value": "7.13 ± 2.19", "unit": "nM"},
      {"measurement": "solubility", "setting": "Solubility (Table 1)", "value": "< 1", "unit": "µg/mL"},
      {"measurement": "microsomal CLint", "setting": "Microsomal clearance [5]", "value": "< 10", "unit": "µL/min/mg"},
      {"measurement": "hCB2R selectivity", "setting": "human CB2R", "value": ">153"},
      {"measurement": "logD", "setting": "[6]", "value": 3.86}
    ]},
    {"compound": "Cc1c(C(=O)NN2CCCCC2)nn(-c2ccc(Cl)cc2Cl)c1-c1ccc(Cl)cc1", "note": "[SR1]", "values": [
      {"measurement": "reduction of [3H]-RNB-61 radioactivity", "setting": "[7]; competitor 1 μM", "value": "did not result in a significant difference"}
    ]}
  ]
}
